One test has as its system MRSA. Put plainly: Frequency of resistance. The format is cell-based, S. aureus. The text has this: Having observed the multiple mechanisms of VanQAmC10, the potential as a preclinical candidate was examined. […] The frequency of resistance for both vancomycin and VanQAmC10 against MRSA was <10^−8 indicating the absence of spontaneous mutants.
The next test relates to ΔamiAC MG1655 E. coli. Put plainly: Antibacterial activity against ΔamiAC MG1655 E. coli. The following applies: LB media, 18 h. The format is cell-based. On the procedure: The bacterial amidases help cleave the septum in the final stage of cell division to produce daughter cells.[39] In the absence of amidases, chains of unseparated cells are formed (Fig. 5D). These retain distinct cytoplasmic compartments but share an outer membrane.[39] These cells are known to be hypersensitive to antibiotics and detergents. However, ΔamiAC mutations are resistant to killing by cephalexin.[38] The MIC of VanQAmC10 against the ΔamiAC mutant was reduced to 4 μM, while that of vancomycin was >10 μM. […] This is indicative of impaired cell division. Cell debris due to lysis after compound treatment are also visible. […]
resuspended in prewarmed BMM media. 1:1 BAC light dye was then added to the bacterial suspension and incubated for 5 minutes. The fluorescence in the GFP and Texas red channels was then observed under the microscope. The experiments were performed three times independently and the images are representative of results from three independent experiments. […]
About 6 μl of sample was immobilized on 1% agarose pad . DIC and fluorescence images were obtained at different time intervals using Nikon Eclipse Ti Microscope equipped with Nikon DS-U3 camera through Plan Apo 100×/1.40 oil objective. […]
from 10 μg/mL. The bacteria with compounds and untreated control were incubated for 18 h at 37 ̊C under shaking and OD600 was measured. […]

For test [1], the system named is VRSA 4 (vancomycin-resistant S. aureus). Put plainly: MIC determination, micro-dilution broth. The following applies: Staphylococcus aureus, read-out: Minimum inhibitory concentration, VRSA 4. The format is cell-based. On the procedure: (§1) The increase in the carbon content of substituted moieties from six (1) to seven (2 and 3) to ten (5) to twelve (4), increased activity. […]
(§2) Test compound was assayed in a micro -dilution broth format as per the CLSI guideline. The bacterial freeze dried stock samples were stored at -80 °C. About 5 μL of these stocks were added to 3 mL of the respective broth and the culture was grown for 6 h at 37°C with prior to the experiments. This 6 h grown culture was diluted to give effective cell concentration of 10 5 CFU/mL which was then used for determining MIC. Compounds were serially diluted 2 -fold, in sterile millipore water and 50 μL of these serial dilutions were added to the wells of 96 well plate followed by the addition of about 150 μL of bacterial solution. The plates were then incubated for 18-24 h at 37 °C. The O.D. value at 600 nm was recorded using TECAN (Infinite series, M200 pro) Plate Reade r. Each concentration had triplicate values and the whole experiment was done at least twice and the MIC value was determined by taking the average of triplicate O. D. values for each concentration and plotting it against concentration. The data was then subjected to sigmoidal fitting. From the curve the MIC value was determined, as the point where the O. D. was similar to that of control having no bacteria.

Test [2] has as its system VRE 51559 (vancomycin-resistant E. faecium, VanA phenotype, ATCC 51559). Description: MIC determination, micro-dilution broth. The format is cell-based. On the procedure:
as §1, §2

Test [3] relates to VRE 51575 (vancomycin-resistant E. faecalis, VanB phenotype, ATCC 51575). Put plainly: MIC determination, micro-dilution broth. The format is cell-based. On the procedure: as §1, §2
Background: Dilution methods test growth across graded concentrations, often in twofold steps.

The test system of test [4] is VRSA 12 (vancomycin-resistant S. aureus). Description: MIC determination, micro-dilution broth. The format is cell-based. Particulars: Staphylococcus aureus, read-out: Minimum inhibitory concentration, VRSA 12. On the procedure: as §1, §2
In test [5] the test system is VRSA 1 (vancomycin-resistant S. aureus). Description: MIC determination, micro-dilution broth. The format is cell-based. Particulars: Staphylococcus aureus, read-out: Minimum inhibitory concentration, VRSA 1. On the procedure: as §1, §2

Converted amounts (≈) assume the structure as drawn. Read-outs that look alike come from different tables or passages of the source.

Consider `CCCCCCCCCCNC(=O)C[N+](C)(C)CCCNC(=O)C1NC(=O)C2NC(=O)C(NC(=O)C3NC(=O)C(CC(N)=O)NC(=O)C(NC(=O)C(CC(C)C)NC)C(O)c4ccc(c(Cl)c4)Oc4cc3cc(c4OC3OC(CO)C(O)C(O)C3OC3CC(C)(N)C(O)C(C)O3)Oc3ccc(cc3Cl)C2O)c2ccc(O)c(c2)-c2c(O)cc(O)cc21` (centres unmarked) [VanQAmC10 (8)], for which, in the test on MRSA, the frequency of resistance is given as < 10^−8. In the test with ΔamiAC MG1655 E. coli, the “MIC against the ΔamiAC mutant” value was 4 µM.
For the molecule `CN[C@H](CC(C)C)C(=O)N[C@H]1C(=O)N[C@@H](CC(N)=O)C(=O)N[C@H]2C(=O)N[C@H]3C(=O)N[C@H](C(=O)N[C@H](C(=O)O)c4cc(O)cc(O)c4-c4cc3ccc4O)[C@H](O)c3ccc(c(Cl)c3)Oc3cc2cc(c3O[C@@H]2O[C@H](CO)[C@@H](O)[C@H](O)[C@H]2O[C@H]2C[C@](C)(N)[C@H](O)[C@H](C)O2)Oc2ccc(cc2Cl)[C@H]1O` [Vancomycin, reference compound], the MIC was found to be 345 µM (≈ 500 µg/mL) in test [1]; 250 µM (≈ 362 µg/mL) in test [2] (Enterococcus, read-out: Minimum inhibitory concentration, VRE 51559); 750 µM (≈ 1090 µg/mL) in test [3] (Enterococcus, read-out: Minimum inhibitory concentration, VRE 51575); 345 µM (≈ 500 µg/mL) in test [4]; 345 µM (≈ 500 µg/mL) in test [5]. For the same molecule, in the test on MRSA, the frequency of resistance is < 10^−8. Further, the “MIC against the ΔamiAC mutant” value against ΔamiAC MG1655 E. coli was > 10 µM.
Take `CNC(CC(C)C)C(=O)NC1C(=O)NC(CC(N)=O)C(=O)NC2C(=O)NC3C(=O)NC(C(=O)NC(C(=O)NCCC[N+](C)(C)Cc4ccc(-c5ccccc5)cc4)c4cc(O)cc(O)c4-c4cc3ccc4O)C(O)c3ccc(c(Cl)c3)Oc3cc2cc(c3OC2OC(CO)C(O)C(O)C2OC2CC(C)(N)C(O)C(C)O2)Oc2ccc(cc2Cl)C1O` (centres unmarked) [VanQbiph (4)]: the MIC is 3.9 µM in test [1]; 6.1 µM in test [2] (Enterococcus; read-out: Minimum inhibitory concentration, VRE 51559); 12.3 µM in test [3] (Enterococcus; read-out: Minimum inhibitory concentration, VRE 51575); 15.7 µM in test [4]; 7.8 µM in test [5].

These data come from publication PMC9977398, “Next-generation membrane-active glycopeptide antibiotics that also inhibit bacterial cell division” (Chemical Science, 2023).
